Tests used:
NAF-1 = target: T1, NAF-1 (Homo sapiens, UniProt Q8N5K1); test: In vitro NEET [2Fe-2S] cluster release, NAF-1; format: biochemical; settings: recombinant NAF-1, 37 °C, absorbance 460 nm
T1 construct: MitoNEET ([60]) and NAF-1 ([61]) cytosolic domains and MiNT ([62]) were purified from E. coli as previously published; made in house; host or cells: E. coli
T1 sequence (Q8N5K1 61-135 limits assumed): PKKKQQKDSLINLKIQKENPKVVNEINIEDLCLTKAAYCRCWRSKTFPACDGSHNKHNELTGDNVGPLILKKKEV
Procedure: (§1) MitoNEET ([60]) and NAF-1 ([61]) cytosolic domains and MiNT ([62]) were purified from E. coli as previously published. Experiments were performed in 96-well plates at 37 °C with […] of Fe-S cluster in a buffer composed of 50 mM Tris-HCl pH 7 and 100 mM NaCl. dEF3122 was dissolved in dimethyl sulfoxide (DMSO) at 10 mM. CPEP31 was dissolved in PBS at 10 mM. After 20 min of incubation of the protein with the molecule, NEET cluster release was followed by measuring the absorbance at 460 and 800 nm over time using a plate reader (SpectraMax ID3). The absorbance at 460 nm was corrected for the variation of the baseline (absorbance at 800 nm) over time and normalized at 1 at the beginning of the kinetics.

[1] = Cryopreserved hepatocyte stability, mouse; format: in vitro ADME; settings: cryopreserved hepatocytes, murine hepatocytes, read-out: CLint mHep
Procedure: (§2) Cryopreserved hepatocyte stability
(§3) Tested compounds (1 μM) were incubated with human cryopreserved hepatocytes (pool of 5) (IVT Celsis) and mouse cryopreserved hepatocytes (IVT Celsis). Hepatocytes (1, 0.5 or 0.25 x10^6 cells/mL, Williams’ Medium E (WME) with 4 mM L-glutamine and 2 mM magnesium sulphate) containing tested compound (final substrate concentration 1 μM; final DMSO concentration 0.25 %) were preincubated at 37 °C. The final incubation volume was 500 μl. 3 species-specific control compounds were included with each species. At 7 time points (0, 10, 20, 40, 60, 90, and 120 min), reactions were stopped by transferring 50 μl of the incubation mixture into 0.5 μM carbamazepine in cold acetonitrile. Tested compound concentrations were analyzed by LC-MS/MS and the resulting data were used to determine the half-life and intrinsic clearance of the compound in each species. […]

PK parameters in mice = format: in vivo, male Swiss (CD-1) mice; settings: mouse
Procedure: PK parameters and tissue distribution in mice
The pharmacokinetic profiles of the tested compounds were evaluated in male Swiss (CD-1) mice around 5-6 weeks old (3 animals per sampling time). […]
0.2 % Tween 80 in water. Blood samples were collected (0.25 mL) from the sinus retro-orbital […]
24 hr for p.o. route. The blood samples were immediately centrifuged at 2500 rpm at +4 °C, and the plasma was stored at −80 °C. 50 μL of plasma sample was taken and 150 μL of acetonitrile was added. After protein precipitation, analysis of the molecule was performed using LC-MS/MS to determine plasma compound concentration. For liver and lung collection, 3 animals per group were involved and sampled after 2 hr and 24 hr upon 20 mg/kg p.o. administration. Animals were perfused with around 10 mL of saline solution directly into the heart to extract the maximal blood sample from the liver and the lung. Animals were then sacrificed by cervical dislocation and liver

MiNT = target: T2, MiNT (Homo sapiens, UniProt P0C7P0); test: In vitro NEET [2Fe-2S] cluster release, MiNT; format: biochemical; settings: recombinant MiNT, 37 °C, absorbance 460 nm
T2 construct: made in house; host or cells: E. coli
T2 sequence (P0C7P0 15-127): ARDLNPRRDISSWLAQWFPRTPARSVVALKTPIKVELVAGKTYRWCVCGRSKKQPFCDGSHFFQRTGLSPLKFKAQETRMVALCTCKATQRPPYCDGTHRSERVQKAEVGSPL
Procedure: as §1

Kinetic solubility = format: physicochemical; settings: PBS pH 7.4 buffer, pH 7.4, aqueous buffer, kinetic from dmso stock
Procedure: 10 mM DMSO Stock solutions of tested compounds were distributed into filtration plate (Multiscreen Durapore 0.45µm) containing PBS pH 7.4 buffer to a final maximum concentration of 130 μM (1.3 % DMSO/buffer). Solutions or suspensions were shaken for 30 min at room temperature. The samples were filtered under vacuum into a collection plate and diluted 50 % with ACN for UV analysis. Quantification was performed against a Reference plate containing the same tested compounds fully solubilized in ACN/PBS buffer 1:1. Reference and Sample plates were analyzed by UPLC/UV-MS using a generic UPLC method. […]

[2] = Cryopreserved hepatocyte stability, human; format: in vitro ADME; settings: cryopreserved hepatocytes, read-out: CLint hHep
Procedure: as §2, §3

With `O=C(Nc1scc(C2CCc3ccccc3C2)c1C(=O)O)c1ccccc1` (centres unmarked) [dEF3122] the “interaction by [2Fe-2S] cluster release assay” value (NAF-1) was “validated the interaction”, the hepatocyte CLint at 1 µM [1] was less than 5 µL/min/1e6 cells and the Cmax (PK parameters in mice; male, Swiss (CD-1), plasma, po 2 mg/kg (dose for AUC)) was 1600 ng/mL. The bioavailability (PK parameters in mice; male, Swiss (CD-1), plasma, po 2 mg/kg, iv 0.25 mg/kg) was 36%, the “plasma concentration reached after oral administration, molar equivalent” value (PK parameters in mice; po 2 mg/kg) was 2600 nM and the “interaction by [2Fe-2S] cluster release assay” value (MiNT) was “validated the interaction”. The solubility kinetic at 30 min (Kinetic solubility) was less than 5 µM and the hepatocyte CLint at 1 µM [2] was 19 µL/min/1e6 cells.
